Results from patent US4550186A, “Binuclear copper (II) carboxylates formed from amine-carboxyboranes” (Duke University, priority 1983, dated 1985).

Tests used:
[1] = biological target: T1, ribosomal ribonucleic acid polymerase (Mus musculus, UniProt O35134+P70700); assay: In vitro ribosomal ribonucleic acid polymerase activity; assay type: biochemical; conditions: 0.25 to 1.0 mM
T1 construct: enzymes isolated from nuclei; endogenous in cells; host or cells: Ehrlich ascites tumor cell nuclei, ammonium sulfate fraction
Protocol: (§1) CF1 male mice (~30 g) were implanted with 2×10^6 Ehrlich ascites tumor cells, intraperitoneally on Day 0. Compound I was suspended by homogenation in 0.05% polysorbate.80-water and administered intraperitoneally at 10 and 20 mg/kg for 9 days to determine its effectiveness for inhibition of tumor growth. Mice were sacrificed on Day 10, and the ascites fluid was collected from the peritoneal cavity. The volume and ascrit (packed cell volume) were determined for each animal and the percent inhibition of tumor growth was calculated. For the metabolic studies, mice were treated on Days 8 and 9 with 10 mg/kg of Compound I, intraperitoneally. The animal was sacrificed on Day 10 and the ascites fluid harvested. The in vitro metabolic studies were performed at […] final concentration of Compound I.
In vitro and in vivo nuclear deoxyribonucleic acid polymerase activity was determined on isolated Ehrlich ascites cell nuclei. The incubation was that described by Sawada et al [Can. Res., 34, 3341 (1974)] except that [methyl-^3 H] deoxythymidine triphosphate (82.4 Ci/mmol) was used. The acid insoluble nucleic acid was collected on GF/F filters and counted. Nuclear ribonucleic acid polymerase activities were determined on enzymes isolated from nuclei. […] The acid insoluble ribonucleic acid was collected on nitrocellulose filters and counted.

Fatty Acid Synthetase = biological target: T2, Fatty Acid Synthetase (Mus musculus, UniProt P19096); assay: In vivo liver enzyme study: fatty acid synthetase; conditions: CF1 liver after 16 days i.p.
T2 construct: 10% homogenates of CF1 male mouse liver; from tissue; host or cells: CF1 male mouse liver, 10% homogenate
Protocol: In vitro enzymatic studies were determined using 10% homogenates of CF1 male mouse liver with 50-200 μM of test drugs. In vivo enzymatic studies were determined using 10% homogenates of liver from CF1 male mice obtained after administering the agents for 16 days at a dose ranging from 2.5-20 mg/kg/day intraperitoneally. The liver homogenates for both in vitro and in vivo studies were prepared in 0.25M sucrose and 0.001M (ethylenedinitrilo)tetraacetic acid. Acetyl coenzyme A synthetase and adenosine triphosphate dependent citrate lyase activities were determined spectrophotometrically at 540 nm as the hydroxylamate of acetyl coenzyme A formed after 30 min at 37° C. Mitochondrial citrate exchange was determined by the procedure of Robinson et al [Eur. J. Biochem., 216, 63 (1970)] using ^14 C-sodium bicarbonate (41 mCi/mmol) incorporated into mitochondrial ^14 C-citrate after isolating rat mitochondria (9000 g×10 min) from the homogenates. The exchanges of the ^14 C-citrate were determined after incubating the mitochondrial fraction which was loaded with labeled citrate and test drugs for 10 min. Then the radioactivity was measured in the mitochondrial and supernantant fractions in scintillation fluid and expressed as a percentage. Cholesterol side chain oxidation was determined by the method of Kritchevsky and Tepper [Artherosclerosis, 18, 93 (1973)] using (26-^14 C) cholesterol (50 mCi/mmol) and mitochondria isolated from rat liver homogenates. […] Fatty acid synthetase activity was determined by the method of Brady et al [J. Biol. Chem., 235, 3093 (1960)] using [2-^14 C] malonyl-coenzyme A (37.5 mCi/mmol) which was incorporated into newly synthesized fatty acids that were extracted with ether and counted. Acyl transferase activity was determined with glycerol-3phosphate [L-2-^3 H(N)] […] HCl and counted. Phosphatidate phosphohydrolase activity was measured as the inorganic phosphate released after 30 min from phosphatidic acid by the method of Mavis et al [J. Lipid Res., 19, 467 (1978)]. […]

[2] = tested on: protein synthesis of Ehrlich ascites cells; assay: In vitro whole cell incorporation: protein synthesis; assay type: cell-based, mouse; conditions: preliminary, 60 min, read-out: ID50, protein synthesis
Protocol: as §1
In vitro incorporation of ^3 H-thymidine, ^3 H-uridine, or ^3 H-leucine was determined using 10^6 Ehrlich ascites cells, 1 μCi labeled precursor, minimum essential medium and varying final concentrations of drug from 0.25-1.0 mM. The tubes were incubated at 37° C. for 60 min and inactivated by trichloroacetic acid. The acid insoluble labeled deoxyribonucleic acid was collected on GF/F glass filter discs and ribonucleic acid and protein were precipitated on nitrocellulose filters by vacuum suction. Results are expressed as dpm of incorporated precursor per hour per 10^6 cells.

T2 sequence (P19096 whole entry): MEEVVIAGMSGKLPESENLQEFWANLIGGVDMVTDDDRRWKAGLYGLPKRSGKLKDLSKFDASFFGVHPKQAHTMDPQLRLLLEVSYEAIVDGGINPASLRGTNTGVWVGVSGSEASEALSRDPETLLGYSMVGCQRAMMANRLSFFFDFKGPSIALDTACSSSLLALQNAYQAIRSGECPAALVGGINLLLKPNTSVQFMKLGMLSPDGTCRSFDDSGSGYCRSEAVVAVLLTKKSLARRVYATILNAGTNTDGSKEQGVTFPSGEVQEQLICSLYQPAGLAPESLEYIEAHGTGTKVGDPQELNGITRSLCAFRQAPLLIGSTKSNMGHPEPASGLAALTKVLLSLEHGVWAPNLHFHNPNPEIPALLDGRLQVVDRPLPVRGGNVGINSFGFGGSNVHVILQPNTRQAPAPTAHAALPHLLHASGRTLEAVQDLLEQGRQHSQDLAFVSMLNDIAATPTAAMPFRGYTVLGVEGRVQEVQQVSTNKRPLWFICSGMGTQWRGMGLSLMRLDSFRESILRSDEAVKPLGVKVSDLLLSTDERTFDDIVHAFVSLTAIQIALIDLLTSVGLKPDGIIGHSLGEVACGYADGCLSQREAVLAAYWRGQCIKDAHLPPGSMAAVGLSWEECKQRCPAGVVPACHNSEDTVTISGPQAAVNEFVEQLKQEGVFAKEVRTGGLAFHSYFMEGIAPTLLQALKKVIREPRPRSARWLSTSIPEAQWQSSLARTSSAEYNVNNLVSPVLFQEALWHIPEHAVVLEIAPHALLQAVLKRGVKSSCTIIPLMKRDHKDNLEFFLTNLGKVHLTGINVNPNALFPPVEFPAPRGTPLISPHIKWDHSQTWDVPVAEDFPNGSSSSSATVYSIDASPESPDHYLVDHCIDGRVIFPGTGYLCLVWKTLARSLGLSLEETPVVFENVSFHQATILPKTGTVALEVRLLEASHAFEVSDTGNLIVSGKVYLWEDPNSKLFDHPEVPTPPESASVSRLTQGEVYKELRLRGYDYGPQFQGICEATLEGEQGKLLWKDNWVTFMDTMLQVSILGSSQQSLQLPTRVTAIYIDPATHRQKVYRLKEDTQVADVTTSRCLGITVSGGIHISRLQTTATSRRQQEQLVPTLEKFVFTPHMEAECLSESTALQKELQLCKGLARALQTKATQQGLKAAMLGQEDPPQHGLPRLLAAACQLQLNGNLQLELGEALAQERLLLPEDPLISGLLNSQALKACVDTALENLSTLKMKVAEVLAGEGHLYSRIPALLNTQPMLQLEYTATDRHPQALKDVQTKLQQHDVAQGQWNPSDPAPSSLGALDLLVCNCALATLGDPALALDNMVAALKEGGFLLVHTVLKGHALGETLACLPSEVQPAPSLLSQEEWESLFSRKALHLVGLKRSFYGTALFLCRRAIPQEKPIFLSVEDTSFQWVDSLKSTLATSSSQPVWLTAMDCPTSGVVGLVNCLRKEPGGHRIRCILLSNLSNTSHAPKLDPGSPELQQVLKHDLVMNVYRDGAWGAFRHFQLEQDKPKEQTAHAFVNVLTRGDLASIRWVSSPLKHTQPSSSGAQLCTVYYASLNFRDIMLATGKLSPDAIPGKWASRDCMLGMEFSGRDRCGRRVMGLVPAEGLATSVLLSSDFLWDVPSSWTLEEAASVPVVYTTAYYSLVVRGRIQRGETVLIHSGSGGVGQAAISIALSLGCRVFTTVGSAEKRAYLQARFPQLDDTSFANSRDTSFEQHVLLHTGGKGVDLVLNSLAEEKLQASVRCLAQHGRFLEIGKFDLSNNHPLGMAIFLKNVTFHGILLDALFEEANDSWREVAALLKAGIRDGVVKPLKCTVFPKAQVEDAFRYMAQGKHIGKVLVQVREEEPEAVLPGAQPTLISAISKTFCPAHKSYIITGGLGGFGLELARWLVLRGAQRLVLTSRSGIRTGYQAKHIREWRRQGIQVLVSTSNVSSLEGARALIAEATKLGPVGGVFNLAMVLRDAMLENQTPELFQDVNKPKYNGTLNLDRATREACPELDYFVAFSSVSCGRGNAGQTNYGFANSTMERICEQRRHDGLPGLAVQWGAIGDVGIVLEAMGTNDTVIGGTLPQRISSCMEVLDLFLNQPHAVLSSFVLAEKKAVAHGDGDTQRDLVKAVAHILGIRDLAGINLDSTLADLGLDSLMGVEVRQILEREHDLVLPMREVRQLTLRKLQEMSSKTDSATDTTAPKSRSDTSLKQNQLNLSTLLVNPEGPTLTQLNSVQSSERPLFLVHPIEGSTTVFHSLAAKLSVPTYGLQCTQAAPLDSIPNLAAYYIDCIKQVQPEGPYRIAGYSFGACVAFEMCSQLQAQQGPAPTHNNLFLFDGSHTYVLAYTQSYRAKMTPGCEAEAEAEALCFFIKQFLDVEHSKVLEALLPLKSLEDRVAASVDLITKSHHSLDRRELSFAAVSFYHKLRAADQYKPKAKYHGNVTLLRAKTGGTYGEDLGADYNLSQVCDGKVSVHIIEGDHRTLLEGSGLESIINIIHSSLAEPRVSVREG

Substance: {Cu[(CH3)3 N.BH2 CO2 ]2.(CH3)3 N.BH2 COOH} [Compound I]
- ribosomal ribonucleic acid polymerase inhibition [1]: not inhibited
- Fatty Acid Synthetase (Fatty Acid Synthetase; 2.5 mg/kg): 102 ± 7% of control
- Fatty Acid Synthetase (Fatty Acid Synthetase; 5.0 mg/kg): 90 ± 6% of control
- Fatty Acid Synthetase (Fatty Acid Synthetase; 10 mg/kg): 94 ± 5% of control
- IC50 [2]: 863 µM
